What was measured:
Type in all cases: cell-based
Botrytis cinerea [1] = test: Color change diameter on bromcresol purple media containing vinclozolin (Example 2); design: key to COLOR CHANGE DIAMETER: T = only slight color change; conditions: for COLOR CHANGE DIAMETER: 20 hours
Protocol: (§1) To a stock solution of 0.4 g bromcresol purple in 260 mls of 0.01N sodium hydroxide, either 40 g of potato dextrose agar (PDA) or 40 g dextrose and 20 g agar (WA-dextrose medium) were added and the total volume brought up to 1 liter using distilled water. After autoclaving the media, a solution of vinclozolin in 5 mls of ethanol was added to afford 5 or 10 ppm concentrations and dispensed into petri plates (10 ml/plate). Sporulating cultures of Botrytis cinerea and Rhizopus nigricans (also known as Rhizopus stolonifer) were grown for two weeks on potato dextrose agar. Spores were transferred to the diagnostic media using sterile cotton tipped swabs and incubated for 20 hours at room temperature. The media was macroscopically examined and the diameter of color change detectable in the media was then measured.

Rhizopus nigricans [2] = test: as above; design: key to COLOR CHANGE DIAMETER: T = only slight color change; conditions: for COLOR CHANGE DIAMETER: 20 hours
Protocol: as §1

Botrytis cinerea [3] = test: Color change diameter on bromothymol blue diagnostic media at pH 7.5-8.5 (Example 3); design: key: T = only slight color change
Protocol: (§2) Diagnostic media was prepared substantially as described above in Preparation Example 1 except that bromothymol blue rather than bromcresol purple and only 4 g of dextrose was used per liter and the pH adjusted to 7.5, 8.0 and 8.5. These media were then inoculated with spores of either Botrytis cinerea or Rhizopus nigricans isolates substantially as previously described. The inoculated media was then incubated for 18 hours at room temperature and the results recorded below in Table III.

Rhizopus nigricans [4] = test: as above; design: key: T = only slight color change
Protocol: as §2

Botrytis cinerea [5] = test: Microscopic spore germination on the Example 3 plates; conditions: microscopically examined
Protocol: Resistant and sensitive fungi were initially obtained from crops of cultivated fruit in the field. The percent germination reported below was calculated by microscopic evaluation. An average of four fields of view per plate was examined with each field of view having a total of about 100 to 300 spores. The total number of spores in each field of view was counted then either the number germinated or not germinated, whichever was easiest to count, was determined. These numbers were then combined appropriately and the percent germination calculated. Unless otherwise noted, resistant isolates are given a numerical designation and sensitive isolates a letter designation.
as §2
Strong color reactions were only observed from the resistant Botrytis cinerea isolates. Only slight reactions, at most, occurred from the Rhizopus nigricans inoculations. Example 4

Botrytis cinerea [6] = test: Color change response at varied vinclozolin concentration (Example 4); design: key: T = only slight color change; conditions: pH 5.5, about 48 hours
Protocol: Diagnostic media was prepared substantially as described above in Preparation Example 1 and the pH adjusted to 5.5 except that the vinclozolin concentrations in the media varied from about 10 ppm to 1000 ppm. The media was inoculated with 1 vinclozolin sensitive (BC-A) and 1 vinclozolin resistant isolate (BC-4) of Botrytis cinerea) and incubated at room temperature for about 48 hours.

In the case of C=CC1(C)OC(=O)N(c2cc(Cl)cc(Cl)c2)C1=O (stereo not drawn) [vinclozolin], the “COLOR CHANGE DIAMETER” value (Botrytis cinerea [1]; isolate BC-1 res., PDA media, vinclozolin 5.0ppm) is reported as 5 mm, the “COLOR CHANGE DIAMETER” value (Botrytis cinerea [1]; isolate BC-1 res., PDA media, vinclozolin 10.0ppm) is reported as 0 mm and the “COLOR CHANGE DIAMETER” value (Botrytis cinerea [1]; isolate BC-1 res., WA-dextrose media, vinclozolin 5.0ppm) is reported as “T^a”. The “COLOR CHANGE DIAMETER” value (Botrytis cinerea [1]; isolate BC-1 res., WA-dextrose media, vinclozolin 10.0ppm) was 5 mm, the “COLOR CHANGE DIAMETER” value (Botrytis cinerea [1]; isolate BC-2 res., PDA media, vinclozolin 5.0ppm) was 10 mm and the “COLOR CHANGE DIAMETER” value (Botrytis cinerea [1]; isolate BC-2 res., PDA media, vinclozolin 10.0ppm) was 0 mm. The “COLOR CHANGE DIAMETER” value (Botrytis cinerea [1]; isolate BC-2 res., WA-dextrose media, vinclozolin 5.0ppm) was 10 mm, the “COLOR CHANGE DIAMETER” value (Botrytis cinerea [1]; isolate BC-2 res., WA-dextrose media, vinclozolin 10.0ppm) was 5 mm and the “COLOR CHANGE DIAMETER” value (Botrytis cinerea [1]; isolate BC-3 resistant, PDA media, vinclozolin 5.0ppm) was 10 mm. The “COLOR CHANGE DIAMETER” value (Botrytis cinerea [1]; isolate BC-3 resistant, PDA media, vinclozolin 10.0ppm) was 0 mm, the “COLOR CHANGE DIAMETER” value (Botrytis cinerea [1]; isolate BC-3 resistant, WA-dextrose media, vinclozolin 5.0ppm) was 10 mm and the “COLOR CHANGE DIAMETER” value (Botrytis cinerea [1]; isolate BC-3 resistant, WA-dextrose media, vinclozolin 10.0ppm) was 10 mm. The “COLOR CHANGE DIAMETER” value (Botrytis cinerea [1]; isolate BC-A sensitive, PDA media, vinclozolin 5.0ppm) was 0 mm, the “COLOR CHANGE DIAMETER” value (Botrytis cinerea [1]; isolate BC-A sensitive, PDA media, vinclozolin 10.0ppm) was 0 mm and the “COLOR CHANGE DIAMETER” value (Botrytis cinerea [1]; isolate BC-A sensitive, WA-dextrose media, vinclozolin 5.0ppm) was 0 mm. The “COLOR CHANGE DIAMETER” value (Botrytis cinerea [1]; isolate BC-A sensitive, WA-dextrose media, vinclozolin 10.0ppm) was 0 mm, the “COLOR CHANGE DIAMETER” value (Botrytis cinerea [1]; isolate BC-B sens., PDA media, vinclozolin 5.0ppm) was 0 mm and the “COLOR CHANGE DIAMETER” value (Botrytis cinerea [1]; isolate BC-B sens., PDA media, vinclozolin 10.0ppm) was 0 mm. For the same compound, the “COLOR CHANGE DIAMETER” value (Botrytis cinerea [1]; isolate BC-B sens., WA-dextrose media, vinclozolin 5.0ppm) was 0 mm, the “COLOR CHANGE DIAMETER” value (Botrytis cinerea [1]; isolate BC-B sens., WA-dextrose media, vinclozolin 10.0ppm) was 0 mm and the “COLOR CHANGE DIAMETER” value (Botrytis cinerea [1]; isolate BC-D sens., PDA media, vinclozolin 5.0ppm) was 0 mm. For the same compound, the “COLOR CHANGE DIAMETER” value (Botrytis cinerea [1]; isolate BC-D sens., PDA media, vinclozolin 10.0ppm) was 0 mm, the “COLOR CHANGE DIAMETER” value (Botrytis cinerea [1]; isolate BC-D sens., WA-dextrose media, vinclozolin 5.0ppm) was 0 mm and the “COLOR CHANGE DIAMETER” value (Botrytis cinerea [1]; isolate BC-D sens., WA-dextrose media, vinclozolin 10.0ppm) was 0 mm. For the same compound, the color change (Botrytis cinerea [1]; resistant isolates, PDA media containing 10 ppm of vinclozolin, after 4 days) was “no measurable color change”, the color reaction (Rhizopus nigricans [2]; Rhizopus nigricans isolates, PDA media containing 5 ppm of vinclozolin, after 4 days) was “allowed 1 of the Rhizopus nigricans contaminated isolates to react” and the “COLOR CHANGE DIAMETER” value (Rhizopus nigricans [2]; isolate RP-1, PDA media, vinclozolin 5.0ppm) was “T”. For the same compound, the “COLOR CHANGE DIAMETER” value (Rhizopus nigricans [2]; isolate RP-1, PDA media, vinclozolin 10.0ppm) was 0 mm, the “COLOR CHANGE DIAMETER” value (Rhizopus nigricans [2]; isolate RP-1, WA-dextrose media, vinclozolin 5.0ppm) was 0 mm and the “COLOR CHANGE DIAMETER” value (Rhizopus nigricans [2]; isolate RP-1, WA-dextrose media, vinclozolin 10.0ppm) was 0 mm. For the same compound, the “COLOR CHANGE DIAMETER” value (Rhizopus nigricans [2]; isolate RP-2, PDA media, vinclozolin 5.0ppm) was “T”, the “COLOR CHANGE DIAMETER” value (Rhizopus nigricans [2]; isolate RP-2, PDA media, vinclozolin 10.0ppm) was 0 mm and the “COLOR CHANGE DIAMETER” value (Rhizopus nigricans [2]; isolate RP-2, WA-dextrose media, vinclozolin 5.0ppm) was 0 mm. For the same compound, the “COLOR CHANGE DIAMETER” value (Rhizopus nigricans [2]; isolate RP-2, WA-dextrose media, vinclozolin 10.0ppm) was 0 mm, the “DIAMETER OF COLOR CHANGE” value (Botrytis cinerea [3]; isolate BC B sens., pH 7.5, 18 hours) was 0 mm and the “DIAMETER OF COLOR CHANGE” value (Botrytis cinerea [3]; isolate BC B sens., pH 8.0, 18 hours) was 0 mm. For the same compound, the “DIAMETER OF COLOR CHANGE” value (Botrytis cinerea [3]; isolate BC B sens., pH 8.5, 18 hours) was 0 mm, the “DIAMETER OF COLOR CHANGE” value (Botrytis cinerea [3]; isolate BC-1 res., pH 7.5, 18 hours) was 12 mm and the “DIAMETER OF COLOR CHANGE” value (Botrytis cinerea [3]; isolate BC-1 res., pH 8.0, 18 hours) was 6 mm. For the same compound, the “DIAMETER OF COLOR CHANGE” value (Botrytis cinerea [3]; isolate BC-1 res., pH 8.5, 18 hours) was 0 mm, the “DIAMETER OF COLOR CHANGE” value (Botrytis cinerea [3]; isolate BC-2 res., pH 7.5, 18 hours) was 12 mm and the “DIAMETER OF COLOR CHANGE” value (Botrytis cinerea [3]; isolate BC-2 res., pH 8.0, 18 hours) was 6 mm. For the same compound, the “DIAMETER OF COLOR CHANGE” value (Botrytis cinerea [3]; isolate BC-2 res., pH 8.5, 18 hours) was “T”, the “DIAMETER OF COLOR CHANGE” value (Botrytis cinerea [3]; isolate BC-3 res., pH 7.5, 18 hours) was 18 mm and the “DIAMETER OF COLOR CHANGE” value (Botrytis cinerea [3]; isolate BC-3 res., pH 8.0, 18 hours) was 12 mm. The “DIAMETER OF COLOR CHANGE” value (Botrytis cinerea [3]; isolate BC-3 res., pH 8.5, 18 hours) was 12 mm, the “DIAMETER OF COLOR CHANGE” value (Botrytis cinerea [3]; isolate BC-4 res., pH 7.5, 18 hours) was 12 mm and the “DIAMETER OF COLOR CHANGE” value (Botrytis cinerea [3]; isolate BC-4 res., pH 8.0, 18 hours) was 12 mm. For the same compound, the “DIAMETER OF COLOR CHANGE” value (Botrytis cinerea [3]; isolate BC-4 res., pH 8.5, 18 hours) was 12 mm, the “DIAMETER OF COLOR CHANGE” value (Botrytis cinerea [3]; isolate BC-5 res., pH 7.5, 18 hours) was 6 mm and the “DIAMETER OF COLOR CHANGE” value (Botrytis cinerea [3]; isolate BC-5 res., pH 8.0, 18 hours) was 3 mm. The “DIAMETER OF COLOR CHANGE” value (Botrytis cinerea [3]; isolate BC-5 res., pH 8.5, 18 hours) was 6 mm, the “DIAMETER OF COLOR CHANGE” value (Botrytis cinerea [3]; isolate BC-6 resistant, pH 7.5, 18 hours) was 6 mm and the “DIAMETER OF COLOR CHANGE” value (Botrytis cinerea [3]; isolate BC-6 resistant, pH 8.0, 18 hours) was 3 mm. The “DIAMETER OF COLOR CHANGE” value (Botrytis cinerea [3]; isolate BC-6 resistant, pH 8.5, 18 hours) was 6 mm, the “DIAMETER OF COLOR CHANGE” value (Botrytis cinerea [3]; isolate BC-A sensitive, pH 7.5, 18 hours) was 0 mm and the “DIAMETER OF COLOR CHANGE” value (Botrytis cinerea [3]; isolate BC-A sensitive, pH 8.0, 18 hours) was 0 mm. For the same compound, the “DIAMETER OF COLOR CHANGE” value (Botrytis cinerea [3]; isolate BC-A sensitive, pH 8.5, 18 hours) was 0 mm, the “DIAMETER OF COLOR CHANGE” value (Botrytis cinerea [3]; isolate BC-C sens., pH 7.5, 18 hours) was “T” and the “DIAMETER OF COLOR CHANGE” value (Botrytis cinerea [3]; isolate BC-C sens., pH 8.0, 18 hours) was 0 mm. The “DIAMETER OF COLOR CHANGE” value (Botrytis cinerea [3]; isolate BC-C sens., pH 8.5, 18 hours) was 0 mm, the “DIAMETER OF COLOR CHANGE” value (Botrytis cinerea [3]; isolate BC-D sens., pH 7.5, 18 hours) was “T” and the “DIAMETER OF COLOR CHANGE” value (Botrytis cinerea [3]; isolate BC-D sens., pH 8.0, 18 hours) was 0 mm. The “DIAMETER OF COLOR CHANGE” value (Botrytis cinerea [3]; isolate BC-D sens., pH 8.5, 18 hours) was 0 mm, the “DIAMETER OF COLOR CHANGE” value (Rhizopus nigricans [4]; isolate RP-3, pH 7.5, 18 hours) was “T” and the “DIAMETER OF COLOR CHANGE” value (Rhizopus nigricans [4]; isolate RP-3, pH 8.0, 18 hours) was “T”. For the same compound, the “DIAMETER OF COLOR CHANGE” value (Rhizopus nigricans [4]; isolate RP-3, pH 8.5, 18 hours) was “T”, the “DIAMETER OF COLOR CHANGE” value (Rhizopus nigricans [4]; isolate RP-4, pH 7.5, 18 hours) was “T” and the “DIAMETER OF COLOR CHANGE” value (Rhizopus nigricans [4]; isolate RP-4, pH 8.0, 18 hours) was “T”. For the same compound, the “DIAMETER OF COLOR CHANGE” value (Rhizopus nigricans [4]; isolate RP-4, pH 8.5, 18 hours) was “T”, the spore germination (Botrytis cinerea [5]; all of the resistant isolates) was “greater than 90%” and the spore germination (Botrytis cinerea [5]; sensitive isolate spores) was “no germination”. For the same compound, the “Color Change Response” value (Botrytis cinerea [6]; isolate BC-4 (vinclozolin resistant), vinclozolin 500 ppm) was “T”, the “Color Change Response” value (Botrytis cinerea [6]; isolate BC-4 (vinclozolin resistant), vinclozolin 1000 ppm) was “T” and the “Color Change Response” value (Botrytis cinerea [6]; isolate BC-A (vinclozolin sensitive), vinclozolin 1000 ppm) was “T”.

— patent EP0373543A2, “Diagnostic media and assay for detecting fungicide resistance” (BASF Corporation, priority 1988, dated 1990)
